Entries after “also recorded” stand apart in the source; their conditions may differ.
Columns and labels:
[1] = test system: antibodies present in IFA sero-positive sera from patients infected with Bartonella henselae (IgG); assay: IgG ELISA with synthetic polypeptides of 17-kDa protein as coating antigen; assay type: binding, human; details: for antibody binding activity in ELISA: IFA sero-positive sera, mostly relative to peptide 3C
Text: A panel of 47 human sera, including 27 IFA positive and 20 WA negative sera, was used. ROC analysis was used to analysis the binding activity via OD450nm (FIGS. 19 and 21). AUCs for peptide 3C, 3B, 3D, and 3E were 0.9, 0.5, 0.5, and 0.8 respectively (FIGS. 19 and 21). […] Thus, the antibody recognition site seems to be present on peptide 3C (but not peptides 3B and 3D).
We adopted an IgG ELISA assay and evaluated the binding activity of the modified peptides towards IgG. The ELISA procedure involves: (i) coating 96-well micro-titer plates with modified peptides at varying concentrations (e.g., 0.2-5 μg/ml) at 4° C. overnight; (ii) adding 5% skim milk to block non-specific binding; (iii) adding patients' sera to allow formation of antibody-antigen complex; (iv) detecting the antibody-antigen complex. IFA sero-positive sera served as positive controls and IFA sero-negative sera served as negative controls. Detection of antibody-antigen complex was performed with the use of horseradish peroxidase.
A panel of 47 human sera was used in an ELISA assay to evaluate the sensitivity and specificity for synthetic polypeptides of 17-kDa protein. This panel contains 27 IFA positive sera and 20 IFA negative sera. Synthetic polypeptides used include amino acid substitution (Peptide 3C-CS3), addition (Peptide 3C-Ext2), and deletion (Peptide 3C-Del). Antibody binding was reflected by OD450nm, which was analyzed by Interactive dot diagram in statistic software MedCalc.

[2] = test system: antibodies against Bartonella henselae in IFA sero-positive patient sera (IgG); assay: IgG ELISA with recombinant 17-kDa protein or Fragment 3 as coating antigen; assay type: binding, human
Procedure: In the ELISA assay, purified Fragment 3 protein was diluted in coating buffer to a final concentration of 250 ng/ml. Antigen was adhered to 96-well plate by applying 100 μl this solution per well and incubated at 4° C. for 18 hours. Uncoated antigen was removed by washing the plate three times with PBST wash buffer. After washing, post-coating was done with 300 μl blocking reagent General Blocker BB1 in each well for 1 hour at 22° C. Primary polyclonal antibody from 100 μl serum in 1:100 sample dilution buffer each well was allowed to react with coated antigen for 1 hour at 22° C. After five wash steps with PBST wash buffer, each well was incubated with […] peroxidase conjugated goat anti-human IgG (KPL, 1:20,000 from 1 mg/ml stock in sample dilute buffer) for 30 minutes at 22° C. The excess amount of secondary antibody was also removed by five wash steps with PBST wash buffer. The reaction were visualized by adding 100 μl substrate 3,3′5,5′-Tetramethylbenzidine solution and incubated at 22° C. for 15 minutes. The reaction was terminated by adding 100 μl 0.5 M H2SO4 per well before taking OD450nm measurement. Receiver operating characteristic curve (ROC) analysis was calculated with associated 95% confidence interval using a binomial distribution with the MedCalc program.
In this series of studies, a panel containing 12 IFA positive serum samples and 6 IFA negative serum samples was evaluated by ELISA using the respective antigen as the coating antigen. FIG. 15 presents the results of this ELISA analysis. […] Neither antigen bound antibody in sample #3508.
To further characterize the comparative abilities of recombinant Fragment 3 and the full length protein to bind antibodies to Bartonella henselae, a broader panel of 47 serum samples (27 IFA positive serum samples and 20 IFA negative serum samples) was analyzed by ELISA. The raw data was analyzed with ROC curve comparison in statistic software MedCalc.
A panel of 47 human sera was used in an IgG ELISA to evaluate the sensitivity and specificity for Fragment 3 mutants. The raw data was analyzed by interactive dot diagram assay (FIGS. 31 and 32).
Purified protein was diluted in coating buffer to a final concentration 250 ng/ml. Antigen was adhered to 96-well plate by applying 100 μl above prepared solution per well and incubate at 4° C. for 18 hours. We removed uncoated antigen by washing plate three times with PBST wash buffer. After washing, post-coating was done with 300 μl blocking reagent General Blocker BB1 each well for 1 hour at 22° C. Then primary polyclonal antibody from 100 μl serum in 1:100 sample dilution buffer each well was allowed to react with coated antigen for 1 hour at 22° C. After five times washing with PBST wash buffer, we incubated each well with 100 μl peroxidase conjugated goat anti-human IgG (KPL, 1:20,000 from 1 mg/ml stock in sample dilute buffer) for 30 minutes at 22° C. The excess amount of secondary antibody was also removed by five times washing with PBST wash buffer. The reaction were visualized by adding 100 μl substrate 3,3′5,5′-Tetramethylbenzidine Solution and incubated at 22° C. for 15 minutes. In the end, we terminated reaction with 100 μl 0.5 M H2SO4 per well before taking OD450nm measurement. Receiver operating characteristic curve (ROC) analysis was calculated with associated 95% confidence interval using a binomial distribution with MedCalc program.

[3] = ELISA, panel of 47 human sera (27 IFA positive, 20 IFA negative), ROC analysis of OD450nm
[4] = panel study, 47 human sera (27 IFA positive, 20 IFA negative), interactive dot diagram

Molecule | antibody binding activity in ELISA [1] | sensitivity [1, 4] | specificity [1, 4] | also measured
EDLQKQLKEKLEKSDVRL (listed as Bartonella henselae) [Peptide 3C, synthetic polypeptide, aa 131-148 of 17-kDa protein] | possesses the antibody binding activity; also recorded: dose-dependent increase in binding towards sero-positive serum | – | – | AUC [1, 3]: 0.9; sensitivity [1, 3]: 77.8%; specificity [1, 3]: 88.2%; antibody binding activity in ELISA ([1]; listed as SEQ ID NO: 22): possesses the ability to bind to antibodies present in IFA positive sera
QKKHEDLQKQLKEKLEKSDVRL (listed as Bartonella henselae) [Peptide 3C-Ext1, peptide 3C with addition of 4 AA at N-terminus] | same binding activity as compared to that of peptide 3C | – | – | –
EDLQKQVKEKLEKSDVRL (listed as Bartonella henselae) [Peptide 3C-CS3, peptide 3C with conservative substitution L to V] | same binding activity; also recorded: identical binding activity as compared to that of peptide 3C | ~80% | ~90% | –
EDLQKQLKSDKEVKLRLE (listed as Bartonella henselae) [Peptide 3C-RD2, peptide 3C with substitution of the last 10 AA at C-terminus] | completed abrogated the binding activity; also recorded: fail to bind antibody | ~11% | 0% | –
DDLQKQLKEKLEKSDVRL (listed as Bartonella henselae) [Peptide 3C-CS1, peptide 3C with conservative substitution E to D] | identical binding activity as compared to that of peptide 3C | – | – | –
EKLEKSDVRL (listed as Bartonella henselae) [Peptide 3E, synthetic polypeptide, aa 139-148 of 17-kDa protein] | not sufficient to complete antibody binding | – | – | AUC [1, 3]: 0.8; sensitivity [1, 3]: 40.7%; specificity [1, 3]: 88.2%; antibody binding activity in ELISA ([1]; listed as SEQ ID NO: 33): by itself insufficient to render the ability to bind antibodies present in IFA positive sera
EEQTQKKHEDLQKQLK (listed as Bartonella henselae) [Peptide 3D, synthetic polypeptide, aa 123-138 of 17-kDa protein] | – | – | – | AUC [1, 3]: 0.5; sensitivity [1, 3]: 85.2%; specificity [1, 3]: 25.0%
LKLELELVQDSDKQEKRK (listed as Bartonella henselae) [Peptide 3C-RD, peptide 3C with substitution of the entire 18 AA] | no binding activity; also recorded: fail to bind antibody | ~11% | 0% | –
EDIQKQLKEKLEKSDVRL (listed as Bartonella henselae) [Peptide 3C-CS2, peptide 3C with conservative substitution L to I] | same binding activity | – | – | –
ED_QKQLKEKLEKSDVRL (EDQKQLKEKLEKSDVRL; listed as Bartonella henselae) [Peptide 3C-Del, peptide 3C with leucine at third position from N-terminus deleted] | did not alter the binding activity; also recorded: identical binding activity as compared to that of peptide 3C | ~80% | ~90% | –
LKQDEQKLEKLEKSDVRL (listed as Bartonella henselae) [Peptide 3C-RD1, peptide 3C with substitution of the first 8 AA at N-terminus] | same binding activity as compared to that of peptide 3C | – | – | –
QAKDTKTKEELREEQTQK (listed as Bartonella henselae) [Peptide 3B, synthetic polypeptide, aa 111-128 of 17-kDa protein] | – | – | – | AUC [1, 3]: 0.5; sensitivity [1, 3]: 33.3%; specificity [1, 3]: 90.0%
EQTQKKHEDLQKQLKEKLEKSDVRL (listed as Bartonella henselae) [Peptide 3C-Ext2, peptide 3C with addition of 7 AA at N-terminus] | same binding activity as compared to that of peptide 3C; also recorded: identical binding activity as compared to that of peptide 3C | ~80% | ~90% | –
17-kDa Fragment 3: His-tagged recombinant fragment of 17-kDa protein, aa 77-148, glutamine instead of arginine at position 147 (protein, listed as Bartonella henselae, His tag) KTKPEQLQALQIELTLLQAQLQADTLKIQSLAMIQAKDTKTKEELREEQTQKKHEDLQKQLKEKLEKSDVQL | – | – | – | area under ROC curve (AUC) ([2]; IgG ELISA, panel of 47 serum samples (27 IFA positive, 20 IFA negative), MedCalc ROC): 0.897; ability to bind antibodies in IgG ELISA ([2]; coating antigen, IFA positive vs IFA negative sera): binds to antibodies against Bartonella henselae; also recorded: identical, if not better, ability to bind antibodies when compared with the full-length 17-kDa protein; also recorded: better sensitivity in detecting positive serum than the full length antigen; reaction with IFA negative serum samples ([2]; panel of 12 IFA positive and 6 IFA negative serum samples): Neither antigen reacted with any of the IFA negative serum samples
